Patent US20160286797A1, “Herbicidal Agents Containing Aclonifen” (BAYER CROPSCIENCE AKTIENGESELLSCHAFT, priority 2013, published 2016)

What was measured:
[1] = system: Lolium spp. resistant to HRAC group B; assay: Greenhouse experiment, post-emergence treatment of ryegrass biotype resistant to HRAC group B; assay type: in vivo; conditions: post-emergence (PO, BBCH 11), about 3 weeks after application
Experimental: (§1) In the standard design of the test, seeds of various broad-leaved weed and weed grass biotypes (origins) were sown in a 8-13 cm diameter pot filled with natural soil of a standard field soil (loamy silt; non-sterile) and covered with a covering soil layer of about 1 cm. The pots were then cultivated in a greenhouse (12-16 h light, temperature day 20-22° C., night 15-18° C.) until the time of application. The pots were treated on a laboratory track sprayer with spray liquors comprising the compositions according to the invention, mixtures of the prior art or components used individually. […]
(§2) About 3 weeks after the application, the soil action or/and foliar action was assessed visually according to a scale of 0-100% in comparison to an untreated comparative group: 0%=no noticable effect compared to the untreated comparative group; 100%=full effect compared to the untreated comparative group. […]
(§3) Insofar as herbicidal effects of the compositions according to the invention compared to mixtures of the prior art or compared to components applied individually against economically important mono- and dicotyledonous harmful plants were the center of attention, the synergistic herbicidal activities were calculated using Colby's formula (cf. S. R. Colby; Weeds 15 (1967), 20-22): […]
(§4) Δ=difference (%) of the measured value (%) to the expected value (%) (measured value minus expected value). […]

[2] = system: Lolium spp. resistant to HRAC group A; assay: Greenhouse experiment, post-emergence treatment of ryegrass biotype resistant to HRAC group A; assay type: in vivo; conditions: post-emergence (PO, BBCH 11), about 3 weeks after application
Experimental: as §1, §2, §3, §4

| SMILES | effect (measured value, visual scale 0-100% vs untreated) ([1]; 225 g of AS/ha) | effect (measured value, visual scale 0-100% vs untreated) ([2]; 225 g of AS/ha) | effect (measured value, visual scale 0-100% vs untreated) ([1]; 30 g of AS/ha) | effect (measured value, visual scale 0-100% vs untreated) ([2]; 30 g of AS/ha) |
| --- | --- | --- | --- | --- |
| Nc1c([N+](=O)[O-])ccc(Oc2ccccc2)c1Cl [(A) aclonifen, 2-chloro-6-nitro-3-phenoxybenzenamine] | 50% | 25% | – | – |
| O=C(Nc1ccc(F)cc1F)c1cccnc1Oc1cccc(C(F)(F)F)c1 [(B) diflufenican, N-(2,4-difluorophenyl)-2-[3-(trifluoromethyl)phenoxy]-3-pyridinecarboxamide] | – | – | 5% | 10% |
